The results in this text go back to patent US11760764B2, “Methods and compositions for targeting PD-L1” (Aligos Therapeutics, Inc., priority 2020, dated 2023).

Test [1] has as its target PD-1/PD-L1 interaction (PDL1-6×His protein, PD1-Fc-Avi-Biotin protein) (Homo sapiens, UniProt Q9NZQ7). The test is described as follows: PDL1/PD1 Binding Assay. The conditions noted are these: 0.3 nM PDL1, 2.5 nM PD1. Here is the method: Compounds to be tested were serially diluted in DMSO, and further diluted in assay buffer (25 mM Hepes pH 7.4, 150 mM NaCl, 0.005% Tween 20, BSA 0.01%). Diluted compounds were added to the wells with final concentration of DMSO at 1%. PDL1-6×His protein was added to the wells, mixed well with compound. The plates were incubated for 30 min at room temperature. PD1-Fc-Avi-Biotin protein was added to the wells. […] After a binding time of 30 min at room temperature, Anti-6×His Acceptor beads (final concentration 20 ug/ml) were added to the wells, and the incubation continued for 1 h. Streptavidin Donor beads (final concentration 20 ug/mL) were added at reduced light. The plates were sealed with foil and incubated in the dark for additional 1 h or overnight before reading on an Envision reader. The IC50s were determined by fitting the curves using a four-parameter equation in Graphpad Prism 8.

Test [2] has as its target T1, PD-1/PD-L1 interaction (Jurkat cells overexpressing PD-1 co-cultured with PD-L1 expressing CHO cells) (Homo sapiens, UniProt Q9NZQ7).
T1 construct: expressed in transfected cells; Jurkat cells (PD-1 and NF-AT luciferase construct)
The test is described as follows: PD-1/PD-L1 NFAT Reporter Assay. The conditions noted are these: Table C-1; Jurkat/CHO co-culture, 6 hrs at 37° C., luciferase activity. It is filed as cell-based. How it is done:
Blocking the PD-1/PD-L1 interaction will release the inhibitory signal and results in TCR signaling and NFAT-mediated luciferase activity.
CHO cells expressing surface-bound anti-CD3 antibodies and PD-L1 were first seeded overnight and treated with the compounds. Jurkat cells overexpressing PD-1 and a luciferase construct under NF-AT promoter were then immediately seeded on the monolayer of CHO cells. The co-culture was then incubated for 6 hrs at 37° C. Luciferase activity was assessed by adding the ONE-Glo reagent and measuring luminescence with a plate reader. EC50s values were determined from the fit of the dose-response curves
(In general: Reporter assays use an easily measured gene product as a stand-in for the process of interest.)

Where [3] appears, read: Table C-1, read-out: Biological Data Biochem PD-1/PD-L1.
Where [4] appears, read: Table C, read-out: PD-1/PD-L1 PPI IC50.

Like-named read-outs stand apart in the source and are kept apart here. Some results are limits rather than exact numbers.

Broadly, the EC50 is the concentration giving half of the maximal effect. The low end stands for higher potency in that assay, the high end for lower potency in that assay.

T1 sequence (Q9NZQ7 19-290): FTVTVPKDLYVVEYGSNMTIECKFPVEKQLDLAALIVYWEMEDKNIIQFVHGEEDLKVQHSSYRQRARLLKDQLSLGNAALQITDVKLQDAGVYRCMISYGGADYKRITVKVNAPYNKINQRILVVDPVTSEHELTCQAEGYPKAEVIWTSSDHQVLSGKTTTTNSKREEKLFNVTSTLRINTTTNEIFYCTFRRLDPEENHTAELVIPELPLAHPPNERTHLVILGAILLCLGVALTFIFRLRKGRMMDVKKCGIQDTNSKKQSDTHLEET
Sequence of PD-1/PD-L1 interaction (PDL1-6×His protein, PD1-Fc-Avi-Biotin protein) (Q9NZQ7 19-238 limits assumed): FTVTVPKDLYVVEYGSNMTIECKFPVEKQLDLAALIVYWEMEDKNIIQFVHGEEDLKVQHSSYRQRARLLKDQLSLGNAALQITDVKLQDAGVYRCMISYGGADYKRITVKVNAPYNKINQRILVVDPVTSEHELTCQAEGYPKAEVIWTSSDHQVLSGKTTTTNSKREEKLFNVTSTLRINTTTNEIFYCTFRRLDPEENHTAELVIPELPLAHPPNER

Consider `COc1nc(-c2cccc(-c3cccc(-c4cc5c(c(OC)n4)[C@@H](N4CC6(CCC(=O)N6)C4)CC5)c3Cl)c2F)cc2c1[C@@H](N1CC3(CCC(=O)N3)C1)CC2` (single isomer, unassigned) [Compound L-9], for which the IC50 in test [1] (setting [3]) and in test [1] (setting [4]) was at most 0.01 µM in each case. In test [2], the EC50 is at most 0.01 µM.

Consider `COCCN1CCc2c(cc(-c3cccc(-c4cccc(-c5cc6c(c(OC)n5)CCN(CCOC)C6)c4Cl)c3Cl)nc2OC)C1` [Compound O-1], for which, in test [1] (setting [3]), the IC50 is at most 0.01 µM. Also, in test [2], the EC50 lay in the range of 1 to 10 µM.

As for `COc1nc(-c2cccc(-c3cccc(-c4cc5c(c(OC)n4)[C@@H](N4CC6(CN(C(C)=O)C6)C4)CC5)c3Cl)c2F)cc2c1[C@@H](N1CC3(CN(C(C)=O)C3)C1)CC2` (single isomer, unassigned) [Compound L-10], the IC50 in test [1] (setting [3]) and in test [1] (setting [4]) was at most 0.01 µM throughout. In test [2], this molecule registered an EC50 above 10 µM.

`O=C(O)C1CN([C@@H]2CCc3cc(-c4cccc(-c5cccc(-c6ccc7c(c6)CC[C@H]7N6CC(C(=O)O)C6)c5Cl)c4Cl)ccc32)C1` (single isomer, unassigned) [Compound M-3B]: the IC50 in test [1] (setting [3]) is at most 0.01 µM. The same molecule yielded an EC50 in test [2] of 0.1 to 1 µM.

For the molecule `COc1cc(-c2cccc(-c3cccc(-c4cc5c(c(OC)c4)C(N4CC(C(=O)O)C4)CC5)c3Cl)c2Cl)cc2c1C(N1CC(C(=O)O)C1)CC2` (centres unmarked) [Compound M-1B], the IC50 in test [1] (setting [3]) was at most 0.01 µM. In test [2], this molecule came in with an EC50 of 0.1 to 1 µM.

Consider `CCOC(=O)C1CN([C@H]2CCc3cc(-c4cccc(-c5cccc(-c6cc7c(c(OC)c6)[C@@H](N6CC(C(=O)OCC)C6)CC7)c5Cl)c4Cl)cc(OC)c32)C1` (single isomer, unassigned) [Compound L-4], for which, in test [1] (setting [3]), the IC50 is at most 0.01 µM. The molecule further displayed a 50% effective concentration (EC50) in test [2] of 0.1 to 1 µM.

As for `CCOC(=O)C1CN([C@@H]2CCc3cc(-c4cccc(-c5cccc(-c6ccc7c(c6)CC[C@H]7N6CC(C(=O)O)C6)c5Cl)c4Cl)ccc32)C1` (single isomer, unassigned) [Compound M-3A], the IC50 in test [1] (setting [3]) is at most 0.01 µM. The same molecule showed an EC50 in test [2] of 0.1 to 1 µM.

For the molecule `COc1cc(-c2cccc(-c3cccc(-c4cc5c(c(OC)c4)[C@H](N4CC(C(=O)O)C4)CC5)c3Cl)c2Cl)cc2c1[C@H](N1CC(C(=O)O)C1)CC2` (single isomer, unassigned) [Compound M-4B], the IC50 in test [1] (setting [3]) fell in the range of 0.01 to 0.1 µM. The “PD-1/PD-L1 NFAT Reporter Assay” value in test [2] was “n.r”.

Turning to `COc1nc(-c2cccc(-c3cccc(-c4cc5c(c(OC)n4)[C@H](N4CC6(CN(C(C)=O)C6)C4)CC5)c3Cl)c2F)cc2c1[C@H](N1CC3(CN(C(C)=O)C3)C1)CC2` (single isomer, unassigned) [Compound L-11], the IC50 in test [1] (setting [3]) and in test [1] (setting [4]) was at most 0.01 µM in each case. For the same molecule, the half-maximal effective concentration (EC50) in test [2] was at most 0.01 µM.

`COc1cc(-c2cccc(-c3cccc(-c4cc5c(c(OC)c4)[C@@H](N4CC(C(=O)O)C4)CC5)c3Cl)c2Cl)cc2c1[C@@H](NC[C@@H]1CCC(=O)N1)CC2` (single isomer, unassigned) [Compound N-2B] yielded an EC50 in test [2] of 0.1 to 1 µM.

Regarding `CCOC(=O)C1CN([C@H]2CCc3cc(-c4cccc(-c5cccc(-c6ccc7c(c6)CC[C@@H]7N6CC(C(=O)O)C6)c5Cl)c4Cl)ccc32)C1` (single isomer, unassigned) [Compound M-2A], the IC50 in test [1] (setting [3]) is at most 0.01 µM. The EC50 in test [2] fell in the range of 0.1 to 1 µM.

Regarding `CCOC(=O)C1CN([C@@H]2CCc3cc(-c4cccc(-c5cccc(-c6ccc7c(c6)CC[C@H]7N6CC(C(=O)OCC)C6)c5Cl)c4Cl)ccc32)C1` (single isomer, unassigned) [Compound L-7], the IC50 in test [1] (setting [3]) is at most 0.01 µM. For the same molecule, in test [2], the EC50 lay within 0.1 to 1 µM.

As for `O=C(O)C1CN([C@H]2CCc3cc(-c4cccc(-c5cccc(-c6ccc7c(c6)CC[C@@H]7N6CC(C(=O)O)C6)c5Cl)c4Cl)ccc32)C1` (single isomer, unassigned) [Compound M-2B], in test [1] (setting [3]), the IC50 was at most 0.01 µM. The molecule further displayed a concentration for a half-maximal effect (EC50) in test [2] of 0.1 to 1 µM.

In the case of `CCOC(=O)C1CN([C@H]2CCc3cc(-c4cccc(-c5cccc(-c6ccc7c(c6)CC[C@@H]7N6CC(C(=O)OCC)C6)c5Cl)c4Cl)ccc32)C1` (single isomer, unassigned) [Compound L-6], the IC50 in test [1] (setting [3]) was at most 0.01 µM. This molecule showed an EC50 in test [2] of 1 to 10 µM.

Molecule `CCOC(=O)C1CN(C2CCc3cc(-c4cccc(-c5cccc(-c6cc7c(c(OC)n6)CCN(CCOC)C7)c5Cl)c4Cl)cc(OC)c32)C1` (single isomer, unassigned) [Compound O-2A] came in with an EC50 in test [2] of 0.1 to 1 µM.

`CCOC(=O)C1CN([C@H]2CCc3cc(-c4cccc(-c5cccc(-c6cc7c(c(OC)n6)[C@@H](NC[C@@H]6CCC(=O)N6)CC7)c5Cl)c4Cl)nc(OC)c32)C1` (single isomer, unassigned) [Compound N-1A] yielded an EC50 in test [2] of 0.01 to 0.1 µM.

Regarding `COc1nc(-c2cccc(-c3cccc(-c4cc5c(c(OC)n4)[C@@H](NC[C@@H]4CCC(=O)N4)CC5)c3Cl)c2F)cc2c1[C@@H](NC[C@@H]1CCC(=O)N1)CC2` [Compound L-8], the IC50 in test [1] (setting [3]) and in test [1] (setting [4]) was at most 0.01 µM each time. In addition, in test [2], the EC50 was at most 0.01 µM.

`CCOC(=O)C1CN([C@H]2CCc3cc(-c4cccc(-c5cccc(-c6cc7c(c(OC)c6)[C@@H](NC[C@@H]6CCC(=O)N6)CC7)c5Cl)c4Cl)cc(OC)c32)C1` (single isomer, unassigned) [Compound N-2A]: the “PD-1/PD-L1 NFAT Reporter Assay” value in test [2] is reported as “n.r”.

Take `CCOC(=O)C1CN([C@@H]2CCc3cc(-c4cccc(-c5cccc(-c6cc7c(c(OC)c6)[C@H](N6CC(C(=O)OCC)C6)CC7)c5Cl)c4Cl)cc(OC)c32)C1` (single isomer, unassigned) [Compound L-5]: the IC50 in test [1] (setting [3]) lay in the range of 0.1 to 1 µM. Also, in test [2], the “PD-1/PD-L1 NFAT Reporter Assay” value is listed as “n.r”.
